Assay results reported in patent US4963570A, “1-(acetylaminophenyl)-2-aminopropanone derivatives and pharmaceutical compositions thereof” (Laboratoire L. Lafon, priority 1983, dated 1990).
Entries after “also recorded” stand apart in the source; their conditions may differ. Counter-ions that a name gives are not always drawn.

Key:
male mice [1] = conditions: reference stimulant agents; cited from earlier work
mice [2] = test: overall behavior and reactivities in mice; format: in vivo, mouse; conditions: i.p.; for excitation in mice: dose not stated
Method: (§1) Groups of three animals are observed before and then 0.25 hour, 0.50 hour, 1 hour, 2 hours, 3 hours and 24 hours after the administration of CRL 41 224.

rats [3] = test: overall behavior and reactivities in rats; format: in vivo, rat; conditions: i.p., dose not stated
Method: as §1

mice [4] = test: interaction with apomorphine in mice; format: in vivo, mouse; conditions: i.p.
Method: Groups of 6 mice receive CRL 41 224 0.5 hour before the subcutaneous injection of 1 or 16 mg/kg of apomorphine.

rats [5] = test: interaction with apomorphine in rats; format: in vivo, rat; conditions: i.p., dose not stated
Method: CRL 41 224 is administered to groups of 6 rats 0.5 hour before the subcutaneous injection of 0.5 mg/kg of apomorphine.

rats [6] = test: interaction with amphetamine; format: in vivo, rat; conditions: i.p.
Method: Amphetamine (2 mg/kg) is injected intraperitoneally into groups of 6 rats 30 minutes after the administration of CRL 41 224.

mice [7] = test: interaction with reserpine; format: in vivo, mouse; conditions: i.p.
Method: Four hours after the intraperitoneal injection of 2.5 mg/kg of reserpine, groups of 6 mice receive CRL 41 224.

mice [8] = test: interaction with oxotremorine; format: in vivo, mouse; conditions: i.p.
Method: CRL 41 224 is administered to groups of 6 mice 0.5 hour before the intraperitoneal injection of 0.5 mg/kg of oxotremorine.

mice [9] = test: four plate test, traction and electric shock; format: in vivo, mouse; conditions: i.p.
Method: The test is performed on groups of 10 mice 30 minutes after the administration of CRL 41 224.

mice [10] = test: action on the spontaneous motility (actimeter); format: in vivo, mouse; conditions: mice, i.p.; dose not stated
Method: 0.5 hour after they have received CRL 41 224, the mice (6 per dose, 12 control animals) are placed in an actimeter, where their motility is recorded for 30 minutes.

mice [11] = test: motility reduced by habituation to the enclosure; format: in vivo, mouse; conditions: i.p.
Method: After they have stayed in the actimeters for 18 hours, the mice (6 per dose, 12 control animals) receive CRL 41 224. They are immediately returned to their respective enclosures and, half an hour later, their motility is recorded for 30 minutes.

mice [12] = test: motility reduced by hypoxic aggression; format: in vivo, mouse; conditions: i.p.; for motor recovery after hypoxic aggression: dose not stated
Method: Half an hour after they have received CRL 41 224, the mice (10 per dose, 20 control animals) are subjected to acute hypobaric anoxia [pressure reduction of 600 mm Hg (i.e. about 8×10^4 Pa) in 90 seconds; release of vacuum in 45 seconds] and are then placed in an actimeter, where their motility is recorded for 10 minutes.

mice [13] = test: interaction with barbital; format: in vivo, mouse; conditions: i.p.; dose not stated
Method: Half an hour after the administration of CRL 41 224, groups of 10 mice receive an intraperitoneal injection of barbital (220 mg/kg).

mice [14] = test: action on the behavioral despair; format: in vivo, mouse; conditions: i.p.; for period of immobility or "despair": dose not stated
Description: Half an hour after they have received CRL 41 224, groups of 6 mice are placed in a beaker filled with water to a height of 6 cm. The total period of immobility between the 2nd and 6th minutes following immersion is noted.

CNS = test: overall neuropsychopharmacological (CNS) profile; format: in vivo, mouse; rat; conditions: i.p.
Method: The neuropsychopharmacological study of CRL 41 219 was carried out as indicated above for CRL 41 224.
The neuropsychopharmacological study of CRL 41 220 was carried out in accordance with the procedures given above for CRL 41 224.

[15] = tested on: peripheral α-adrenergic stimulation; test: signs of peripheral adrenergic stimulation; format: in vivo, mouse; rat; conditions: i.p.; dose not stated
Method: as §1

mice [16] = test: toxicity to grouped mice compared with isolated mice; format: in vivo, mouse
rats [17] = test: action on stereotypies in rats (α-methyltyrosine, haloperidol, reserpine); conditions: for suppression of induced stereotype movements by prior injection of alpha-methyltyrosine: i.p.
male mice [18] = test: acute toxicity, intraperitoneal (lethal doses); format: in vivo, mouse; conditions: i.p.
Method: By intraperitoneal administration to male mice, the LD-30 (lethal dose for 30% of the animals tested) is of the order of 128 mg/kg and the LD-50 is of the order of about 200 mg/kg.

[19] = tested on: delayed hypersensitivity to the red blood corpuscles of sheep; test: delayed hypersensitivity to the red blood corpuscles of sheep (Miller); format: in vivo
immunological properties = test: immunological properties, overall; format: in vivo; conditions: dose not stated
Description: The present 1-(acetylaminophenyl)-2-aminopropanone derivatives are useful in therapy. They all act on the CNS, more precisely as antidepressants. They have a stimulant or excitant component in their neuropsychopharmacological profile.

[20] = tested on: spleen cells expressing a direct IgM antibody response; test: test for cells forming lysis areas (PFC IgM, Cunningham); format: in vivo, mouse; conditions: 0.1, 10 and 100 mg/kg
Method: Immunological assays were carried out in order to point out the interest of CRL 41 240 as an immunomodulating agent. Specifically, the test used was the so-called test for cells forming lysis areas, described by A. J. […] et al. ("Further improvements in the plaque technique for detecting simple antibody forming cells"), Immunology 14, pages 599-601 (1968).
The test for cells forming lysis areas (or PFC IgM) explores the humoral immunity. Four days after immunization with a T-dependent antigen (in this case red blood corpuscles of sheep), the spleen cells expressing a direct IgM antibody response are counted. The mice used for this purpose are conventional female OF1 mice devoid of specific pathogenic organisms, weighing from 20 to 30 g and divided up into a control group of 14 animals and groups each containing 7 animals per dose and per product to be studied, administered orally on the same day as the antigen. An activity index I is calculated for each dose of product according to the following equation: [formula]
This test is performed at least twice for each dose of test product [C(control amimals), 0.01, 0.1, 10 and 100 mg/kg] and a statistical study is undertaken using the Student t test after variance analysis on the number of lyses per spleen.

## CN1Cc2c(N)cccc2C(c2ccccc2)C1 (stereo not shown) [nomifensine]
Male mice [1]
  motor effects with I.V.C. administration of noradrenaline: potentialized by I.V.C. administration of noradrenaline

## CCCNC(C)C(=O)c1ccc(NC(C)=O)cc1 (stereo not shown) [CRL 41 212]
Mice [2]
  excitation in mice: excitation with hyperreactivity in mice
Rats [3]
  stereotype movements in rats: stereotype movements in rats
Mice [4]; dose not stated
  hypothermia induced by apomorphine: antagonism of the hypothermia induced by apomorphine
Rats [5]
  stereotypies induced by apomorphine: potentiation of the stereotypies induced by apomorphine
Rats [6]; rats, dose not stated
  stereotypies induced by amphetamine: potentiation of the stereotypies induced by apomorphine or amphetamine
Mice [7]; dose not stated
  hypothermia induced by reserpine: antagonism of the hypothermia induced by apomorphine, oxotremorine or reserpine
  ptosis induced by reserpine: antagonism of the ptosis induced by reserpine
Mice [8]; dose not stated
  hypothermia induced by oxotremorine: antagonism of the hypothermia induced by apomorphine, oxotremorine
  trembling caused by oxotremorine: antagonism of the trembling caused by oxotremorine
Mice [9]; dose not stated
  convulsant effects of electric shock: anticonvulsant effects
Mice [10]
  spontaneous motility / motor activity: an increase in the spontaneous motility in mice
Mice [11]; dose not stated
  motor activity after habituation to the enclosure: a resumption in the motor activity of mice accustomed to their enclosure
Mice [12]
  motor recovery after hypoxic aggression: an improvement in the motor recovery in mice after acute hypoxia
Mice [13]
  sleep induced by barbital: antagonism of the sleep induced by barbital
Mice [14]
  period of immobility or "despair": a reduction in the immobility
CNS; mice and rats, dose not stated
  overall action on the CNS: stimulant effects; also recorded: antidepressant effects
[15]
  exophthalmos: absent
  mydriasis: mydriasis
  peripheral adrenergic stimulation, overall: effects which may reflect peripheral adrenergic stimulation
  salivation: absent
Mice [16]
  toxicity to grouped mice compared with isolated mice: do not increase the toxicity to grouped mice
Rats [17]
  suppression of induced stereotype movements by prior injection of alpha-methyltyrosine: not suppressed

## CC(N)Cc1ccccc1 (stereo not shown) [amphetamine, reference compound]
Male mice [1]
  motor effects with I.V.C. administration of noradrenaline: potentialized by I.V.C. administration of noradrenaline
Rats [17]; haloperidol 0.25 mg/kg i.p. 0.5 h before
  effect of haloperidol on induced stereotypies: almost totally prevents the appearance of stereotypies
Rats [17]; haloperidol 0.5 mg/kg i.p. 0.5 h before
  effect of haloperidol on induced stereotypies: totally inhibits the said stereotypies

## COC(=O)[C@H]1[C@@H](OC(=O)c2ccccc2)C[C@@H]2CC[C@H]1N2C [cocaine]
Male mice [1]
  motor effects with I.V.C. administration of noradrenaline: potentialized by I.V.C. administration of noradrenaline

## CNC(C)C(=O)c1ccc(NC(C)=O)cc1 (stereo not shown) [CRL 41 217]
Mice [2]
  excitation in mice: excitation with hyperreactivity in mice
Rats [3]
  stereotype movements in rats: stereotype movements in rats
Mice [4]; dose not stated
  hypothermia induced by apomorphine: antagonism of the hypothermia induced by apomorphine
Rats [5]
  stereotypies induced by apomorphine: potentiation of the stereotypies induced by apomorphine
Rats [6]; rats, dose not stated
  stereotypies induced by amphetamine: potentiation of the stereotypies induced by apomorphine or amphetamine
Mice [7]; dose not stated
  hypothermia induced by reserpine: antagonism of the hypothermia induced by apomorphine, oxotremorine or reserpine
  ptosis induced by reserpine: antagonism of the ptosis induced by reserpine
Mice [8]; dose not stated
  hypothermia induced by oxotremorine: antagonism of the hypothermia induced by apomorphine, oxotremorine
  trembling caused by oxotremorine: antagonism of the trembling caused by oxotremorine
Mice [9]; dose not stated
  convulsant effects of electric shock: potentiate the convulsant effects of electric shock
Mice [10]
  spontaneous motility / motor activity: an increase in the spontaneous motility in mice
Mice [11]; dose not stated
  motor activity after habituation to the enclosure: a resumption in the motor activity of mice accustomed to their enclosure
Mice [12]
  motor recovery after hypoxic aggression: an improvement in the motor recovery in mice after acute hypoxia
Mice [13]
  sleep induced by barbital: antagonism of the sleep induced by barbital
Mice [14]
  period of immobility or "despair": a reduction in the immobility
CNS; mice and rats, dose not stated
  overall action on the CNS: stimulant effects; also recorded: antidepressant effects
[15]
  exophthalmos: absent
  mydriasis: mydriasis
  peripheral adrenergic stimulation, overall: effects which may reflect peripheral adrenergic stimulation
  salivation: absent
Mice [16]
  toxicity to grouped mice compared with isolated mice: do not increase the toxicity to grouped mice
Rats [17]
  suppression of induced stereotype movements by prior injection of alpha-methyltyrosine: not suppressed

## CC(=O)Nc1ccc(C(=O)C(C)N2CCSCC2)cc1 (stereo not shown) [CRL 41 247]
Male mice [18]
  LD-0 (maximum non-lethal dose): greater than 512 mg/kg
  LD-60: about 1000 mg/kg
Mice [2]; 256 mg/kg, 30 minutes after administration
  hypothermia, temperature change: -3.3 °C
Mice [2]; strong/high doses
  body temperature (hypothermia): hypothermia
Mice [4]; strong doses
  hypothermia induced by apomorphine: very moderate antagonism of the hypothermia induced by apomorphine
Rats [6]; strong doses
  stereotypies induced by amphetamine: potentiation of the stereotypies induced by amphetamine
Mice [7]; strong doses
  hypothermia induced by reserpine: no antagonism towards the hypothermia induced by reserpine
Mice [8]; strong/high doses
  hypothermia induced by oxotremorine: very moderate antagonism of the hypothermia induced by apomorphine and oxotremorine
Mice [9]; strong/high dose
  convulsant effects of electric shock: a reduction in the convulsant effects of electric shock
Mice [11]; strong doses
  motor activity after habituation to the enclosure: an increase in the motor activity of mice after habituation to their enclosure
Mice [12]; strong doses
  motor activity after acute hypoxia: an increase in the motor activity of mice after habituation to their enclosure and after acute hypoxia
Mice [14]; strong/high doses
  period of immobility of mice forcibly immersed: a reduction in the period of immobility
[19]; dose not stated
  cell activity (technique of Miller et al.): stimulates cell activity
CNS; strong/high doses
  overall action on the CNS: discreet antidepressant effects; also recorded: stimulant effects
Immunological properties
  immunological properties, overall: beneficial immunomodulating effects

## COC(=O)C(c1ccccc1)C1CCCCN1 (stereo not shown) [methylphenidate, reference compound]
Male mice [1]
  motor effects with I.V.C. administration of noradrenaline: potentialized by I.V.C. administration of noradrenaline
Rats [17]; reserpine 4 mg/kg i.p. 24 hours before
  effect of reserpine on induced stereotypies: only a moderate reduction of the stereotypies

## CC(=O)Nc1cccc(C(=O)C(C)N2CCCCC2)c1 (stereo not shown) [CRL 41 262, 1-(3-acetylaminophenyl)-2-piperidinopropanone hydrochloride]
[20]
  immunostimulant activity, PFC IgM test: immunostimulant activity
[19]; oral, 10 and 100 mg/kg
  immunostimulant activity, delayed hypersensitivity: immunostimulant activity
CNS; mice and rats, dose not stated
  overall action on the CNS: antidepressant and stimulant effects on the CNS
Immunological properties; hydrochloride
  immunological properties, overall: beneficial immunomodulating effects; also recorded: particularly valuable as an immunomodulator
